*1 amine or outer side, *2 acyl side, *3 side chain or, on linkers, in order; H or OH if unused. Where a SMILES comes first, the peptide text is derived from it. Side-chain parts run from the residue outwards. [ ]: non-standard residue; d: D form. The star is where a group is joined. C20 diacid = O=C(O)CCCCCCCCCCCCCCCCCCC(=O)*; C18 diacid = O=C(O)CCCCCCCCCCCCCCCCC(=O)*; αMePhe(2-F) = C[C@](N)(Cc1ccccc1F)C(=O)O; γGlu = O=C(O)[C@H](CCC(=O)[*:2])N[*:1]; 4Pal = N[C@@H](Cc1ccncc1)C(=O)O; αMeL = CC(C)C[C@](C)(N)C(=O)O; Iva = CC[C@](C)(N)C(=O)O; Orn = NCCC[C@H](N)C(=O)O; AEEA = NCCOCCOCC(=O)O; Aib = CC(C)(N)C(=O)O

The target of one test is T1, human GcgR (Homo sapiens, UniProt P47871).
T1 construct: expressed in transfected cells; crude membranes
As to the kind of experiment: [125I]-Glucagon binding, SPA with WGA beads, 0.1% bacitracin. The conditions noted are these: geometric mean, read-out: hGcgR Ki. The method, boiled down: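 SPA competition binding with WGA beads on crude membranes from HEK293 cells stably expressing hGcgR. Buffer: 25 mM HEPES pH 7.4, 2.5 mM CaCl2, 1 mM MgCl2, 0.1% bacitracin, 0.003% Tween-20; 10-point 3-fold dilutions, NSB with 1 μM Gcg.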

The target of the next test is T2, human GIPR (Homo sapiens, UniProt P48546).
T2 construct: expressed in transfected cells; crude membranes
T2 sequence (P48546 22-466): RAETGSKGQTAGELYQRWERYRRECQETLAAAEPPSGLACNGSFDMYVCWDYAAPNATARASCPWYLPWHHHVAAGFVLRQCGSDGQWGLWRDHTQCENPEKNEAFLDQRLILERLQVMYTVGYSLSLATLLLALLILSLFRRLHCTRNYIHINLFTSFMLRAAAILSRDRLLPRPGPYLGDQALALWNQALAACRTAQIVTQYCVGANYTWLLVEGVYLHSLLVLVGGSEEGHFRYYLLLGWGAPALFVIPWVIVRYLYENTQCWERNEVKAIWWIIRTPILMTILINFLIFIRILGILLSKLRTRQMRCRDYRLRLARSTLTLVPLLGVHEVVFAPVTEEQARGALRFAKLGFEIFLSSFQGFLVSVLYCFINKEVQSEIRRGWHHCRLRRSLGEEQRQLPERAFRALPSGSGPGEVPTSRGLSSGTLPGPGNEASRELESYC
Kind of test: [125I]-GIP binding, SPA with WGA beads, 0.1% bacitracin. The conditions noted are these: geometric mean, read-out: hGIPR Ki. The method, boiled down:
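Ki values are geometric means (SEM, n independent days), derived from four-parameter nonlinear regression of IC50. Membranes came from hGIPR-expressing CHO cells.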

The target in the next test is T3, human GLP-1R (Homo sapiens, UniProt P43220).
T3 construct: expressed in transfected cells; crude membranes
Kind of test: [125I]-GLP-1 binding, SPA with WGA beads, 0.1% bacitracin. The conditions noted are these: geometric mean, read-out: hGLP1R Ki. The method, boiled down:
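Binding buffer was 25 mM HEPES pH 7.4 with 2.5 mM CaCl2, 1 mM MgCl2, 0.1% (w/v) bacitracin, 0.003% Tween-20 and EDTA-free protease inhibitors. Four-parameter regression gave IC50, converted to Ki (geometric mean, SEM, n independent days).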

T1 sequence (P47871 26-477): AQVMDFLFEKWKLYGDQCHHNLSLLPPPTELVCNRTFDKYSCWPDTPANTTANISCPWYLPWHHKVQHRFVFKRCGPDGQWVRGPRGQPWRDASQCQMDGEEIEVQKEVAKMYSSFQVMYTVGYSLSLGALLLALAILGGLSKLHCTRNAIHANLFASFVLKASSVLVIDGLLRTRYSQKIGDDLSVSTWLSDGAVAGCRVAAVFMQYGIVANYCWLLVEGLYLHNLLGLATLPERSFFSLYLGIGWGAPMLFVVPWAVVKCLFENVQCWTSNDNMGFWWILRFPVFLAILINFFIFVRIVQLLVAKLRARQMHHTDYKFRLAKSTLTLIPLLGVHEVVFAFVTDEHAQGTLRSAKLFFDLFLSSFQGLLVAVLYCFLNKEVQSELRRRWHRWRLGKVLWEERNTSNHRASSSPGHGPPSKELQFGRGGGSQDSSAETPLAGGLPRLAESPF
T3 sequence (P43220 24-463): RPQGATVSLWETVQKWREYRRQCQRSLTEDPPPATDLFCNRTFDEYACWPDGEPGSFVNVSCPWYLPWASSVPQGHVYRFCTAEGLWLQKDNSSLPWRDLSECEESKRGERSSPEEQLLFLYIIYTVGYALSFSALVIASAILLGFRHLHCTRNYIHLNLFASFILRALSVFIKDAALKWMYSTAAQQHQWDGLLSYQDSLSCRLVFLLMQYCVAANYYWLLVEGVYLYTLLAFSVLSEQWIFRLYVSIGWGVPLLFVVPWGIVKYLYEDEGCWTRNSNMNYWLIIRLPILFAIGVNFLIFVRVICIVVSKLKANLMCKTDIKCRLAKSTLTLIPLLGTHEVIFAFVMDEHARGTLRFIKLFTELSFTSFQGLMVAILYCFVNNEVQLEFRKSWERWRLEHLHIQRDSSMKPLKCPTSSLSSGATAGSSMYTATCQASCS

As a reminder, the Ki is a dissociation constant, usually derived from enzyme kinetics or from competition with a known ligand. For the compound `CC[C@H](C)[C@H](NC(=O)[C@H](CO)NC(=O)[C@H](Cc1ccc(O)cc1)NC(=O)[C@H](CC(=O)O)NC(=O)[C@H](CO)NC(=O)[C@@H](NC(=O)[C@](C)(Cc1ccccc1F)NC(=O)[C@@H](NC(=O)CNC(=O)[C@H](CCC(=O)O)NC(=O)C(C)(C)NC(=O)[C@@H](N)Cc1ccc(O)cc1)[C@@H](C)O)[C@@H](C)CC)C(=O)N[C@@H](C)C(=O)N[C@@H](CC(C)C)C(=O)N[C@@H](CC(=O)O)C(=O)N[C@@H](CCCCN)C(=O)N[C@H](C(=O)N[C@@H](Cc1c[nH]cn1)C(=O)N[C@@H](CCC(N)=O)C(=O)NC(C)(C)C(=O)N[C@@H](CCC(=O)O)C(=O)N[C@@H](Cc1ccccc1)C(=O)N[C@H](C(=O)N[C@@H](CC(N)=O)C(=O)N[C@@H](Cc1ccc(O)cc1)C(=O)N[C@@H](CCCCNC(=O)COCCOCCNC(=O)COCCOCCNC(=O)CC[C@H](NC(=O)CCCCCCCCCCCCCCCCCCC(=O)O)C(=O)O)C(=O)N[C@@H](CC(C)C)C(=O)N[C@@H](C)C(=O)NCC(=O)NCC(=O)N1CCC[C@H]1C(=O)N[C@@H](CO)C(=O)N[C@@H](CO)C(=O)NCC(=O)N[C@@H](C)C(=O)N1CCC[C@H]1C(=O)N1CCC[C@H]1C(=O)N1CCC[C@H]1C(=O)N[C@@H](CO)C(N)=O)C(C)C)[C@@H](C)CC` [Example 98] (H-Y[Aib]EGT[αMePhe(2-F)]ISDYSIALDKIHQ[Aib]EFVNYK([AEEA-AEEA-γGlu-C20 diacid])LAGGPSSGAPPPS-NH2), the Ki at human GcgR was 38.4 nM; at human GIPR it was 0.0195 nM; at human GLP-1R it was 311 nM.
The matching figures for `CC[C@H](C)[C@H](NC(=O)[C@H](CO)NC(=O)[C@H](Cc1ccc(O)cc1)NC(=O)[C@H](CC(=O)O)NC(=O)[C@H](CO)NC(=O)[C@@H](NC(=O)[C@H](Cc1ccccc1)NC(=O)[C@@H](NC(=O)CNC(=O)[C@H](CCC(=O)O)NC(=O)[C@@H](C)NC(=O)[C@@H](N)Cc1ccc(O)cc1)[C@@H](C)O)[C@@H](C)CC)C(=O)N[C@@H](CC(C)C)C(=O)N[C@@H](CC(C)C)C(=O)N[C@@H](CC(=O)O)C(=O)N[C@@H](CCCCN)C(=O)N[C@@H](CCCCNC(=O)COCCOCCNC(=O)COCCOCCNC(=O)CC[C@H](NC(=O)CCCCCCCCCCCCCCCCC(=O)O)C(=O)O)C(=O)N[C@@H](C)C(=O)N[C@@H](CCC(N)=O)C(=O)NC(C)(C)C(=O)N[C@@H](CCC(=O)O)C(=O)N[C@@H](Cc1ccccc1)C(=O)N[C@H](C(=O)N[C@@H](CCC(=O)O)C(=O)N[C@@H](Cc1c[nH]c2ccccc12)C(=O)N[C@@H](CC(C)C)C(=O)N[C@@H](CC(C)C)C(=O)N[C@@H](C)C(=O)NCC(=O)NCC(=O)N1CCC[C@H]1C(=O)N[C@@H](CO)C(=O)N[C@@H](CO)C(=O)NCC(=O)N[C@@H](C)C(=O)N1CCC[C@H]1C(=O)N1CCC[C@H]1C(=O)N1CCC[C@H]1C(=O)N[C@@H](CO)C(N)=O)C(C)C` [Example 29] (H-Y[dA]EGTFISDYSILLDKK([AEEA-AEEA-γGlu-C18 diacid])AQ[Aib]EFVEWLLAGGPSSGAPPPS-NH2): 133 nM, 0.0569 nM and 22.7 nM.
For the compound `CC[C@H](C)[C@H](NC(=O)[C@H](CO)NC(=O)[C@H](Cc1ccc(O)cc1)NC(=O)[C@H](CC(=O)O)NC(=O)[C@H](CO)NC(=O)[C@@H](NC(=O)[C@](C)(CC)NC(=O)[C@@H](NC(=O)CNC(=O)[C@H](CCC(=O)O)NC(=O)C(C)(C)NC(=O)[C@@H](N)Cc1ccc(O)cc1)[C@@H](C)O)[C@@H](C)CC)C(=O)N[C@@](C)(CC(C)C)C(=O)N[C@@H](CC(C)C)C(=O)N[C@@H](CC(=O)O)C(=O)N[C@@H](CCCN)C(=O)N[C@@H](CCCCNC(=O)COCCOCCNC(=O)COCCOCCNC(=O)CC[C@H](NC(=O)CCCCCCCCCCCCCCCCCCC(=O)O)C(=O)O)C(=O)N[C@@H](Cc1c[nH]cn1)C(=O)N[C@@H](CCC(N)=O)C(=O)NC(C)(C)C(=O)N[C@@H](CC(=O)O)C(=O)N[C@@H](Cc1ccccc1)C(=O)N[C@H](C(=O)N[C@@H](CCC(=O)O)C(=O)N[C@@H](Cc1ccncc1)C(=O)N[C@@H](CC(C)C)C(=O)N[C@@H](CC(C)C)C(=O)N[C@@H](CCC(=O)O)C(=O)NCC(=O)NCC(=O)N1CCC[C@H]1C(=O)N[C@@H](CO)C(=O)N[C@@H](CO)C(=O)NCC(=O)N[C@@H](C)C(=O)N1CCC[C@H]1C(=O)N1CCC[C@H]1C(=O)N1CCC[C@H]1C(=O)N[C@@H](CO)C(N)=O)C(C)C` [Example 76] (H-Y[Aib]EGT[Iva]ISDYSI[αMeL]LD[Orn]K([AEEA-AEEA-γGlu-C20 diacid])HQ[Aib]DFVE[4Pal]LLEGGPSSGAPPPS-NH2), the Ki at human GcgR is 358 nM; at human GIPR, 0.0293 nM; at human GLP-1R it was 263 nM.
The matching figures for `CC[C@H](C)[C@H](NC(=O)[C@H](CO)NC(=O)[C@H](Cc1ccc(O)cc1)NC(=O)[C@H](CC(=O)O)NC(=O)[C@H](CO)NC(=O)[C@@H](NC(=O)[C@](C)(CC)NC(=O)[C@@H](NC(=O)CNC(=O)[C@H](CCC(=O)O)NC(=O)C(C)(C)NC(=O)[C@@H](N)Cc1ccc(O)cc1)[C@@H](C)O)[C@@H](C)CC)C(=O)N[C@@](C)(CC(C)C)C(=O)N[C@@H](CC(C)C)C(=O)N[C@@H](CC(=O)O)C(=O)N[C@@H](CCCN)C(=O)N[C@@H](CCCCNC(=O)COCCOCCNC(=O)COCCOCCNC(=O)CC[C@H](NC(=O)CCCCCCCCCCCCCCCCCCC(=O)O)C(=O)O)C(=O)N[C@@H](Cc1c[nH]cn1)C(=O)N[C@@H](CCC(N)=O)C(=O)NC(C)(C)C(=O)N[C@@H](CC(=O)O)C(=O)N[C@@H](Cc1ccccc1)C(=O)N[C@H](C(=O)N[C@@H](CCC(=O)O)C(=O)N[C@@H](Cc1ccncc1)C(=O)N[C@@H](CC(C)C)C(=O)N[C@@H](CC(C)C)C(=O)N[C@@H](CCC(=O)O)C(=O)N[C@H](C(=O)NCC(=O)N1CCC[C@H]1C(=O)N[C@@H](CO)C(=O)N[C@@H](CO)C(=O)NCC(=O)N[C@@H](C)C(=O)N1CCC[C@H]1C(=O)N1CCC[C@H]1C(=O)N1CCC[C@H]1C(=O)N[C@@H](CO)C(N)=O)[C@@H](C)O)C(C)C` [Example 77] (H-Y[Aib]EGT[Iva]ISDYSI[αMeL]LD[Orn]K([AEEA-AEEA-γGlu-C20 diacid])HQ[Aib]DFVE[4Pal]LLETGPSSGAPPPS-NH2): greater than 958 nM, 0.0841 nM and greater than 905 nM.
The matching figures for `CC[C@H](C)[C@H](NC(=O)[C@H](CO)NC(=O)[C@H](Cc1ccc(O)cc1)NC(=O)[C@H](CC(=O)O)NC(=O)[C@H](CO)NC(=O)[C@@H](NC(=O)[C@](C)(Cc1ccccc1F)NC(=O)[C@@H](NC(=O)CNC(=O)[C@H](CCC(=O)O)NC(=O)C(C)(C)NC(=O)[C@@H](N)Cc1ccc(O)cc1)[C@@H](C)O)[C@@H](C)CC)C(=O)N[C@@H](CC(C)C)C(=O)N[C@@H](CC(C)C)C(=O)N[C@@H](CC(=O)O)C(=O)N[C@@H](CCCCN)C(=O)N[C@H](C(=O)N[C@@H](Cc1c[nH]cn1)C(=O)N[C@@H](CCC(N)=O)C(=O)NC(C)(C)C(=O)N[C@@H](CC(=O)O)C(=O)N[C@@H](Cc1ccccc1)C(=O)N[C@H](C(=O)N[C@@H](CCC(=O)O)C(=O)N[C@@H](Cc1ccncc1)C(=O)N[C@@H](CCCCNC(=O)COCCOCCNC(=O)COCCOCCNC(=O)CC[C@H](NC(=O)CCCCCCCCCCCCCCCCCCC(=O)O)C(=O)O)C(=O)N[C@@H](CC(C)C)C(=O)N[C@@H](CCC(=O)O)C(=O)NCC(=O)NCC(=O)N1CCC[C@H]1C(=O)N[C@@H](CO)C(=O)N[C@@H](CO)C(=O)NCC(=O)N[C@@H](C)C(=O)N1CCC[C@H]1C(=O)N1CCC[C@H]1C(=O)N1CCC[C@H]1C(=O)N[C@@H](CO)C(N)=O)C(C)C)[C@@H](C)CC` [Example 119] (H-Y[Aib]EGT[αMePhe(2-F)]ISDYSILLDKIHQ[Aib]DFVE[4Pal]K([AEEA-AEEA-γGlu-C20 diacid])LEGGPSSGAPPPS-NH2): 68.8 nM, 0.129 nM and 723 nM.
On to `CC[C@H](C)[C@H](NC(=O)[C@H](CO)NC(=O)[C@H](Cc1ccc(O)cc1)NC(=O)[C@H](CC(=O)O)NC(=O)[C@H](CO)NC(=O)[C@@H](NC(=O)[C@H](Cc1ccccc1)NC(=O)[C@@H](NC(=O)CNC(=O)[C@H](CCC(=O)O)NC(=O)C(C)(C)NC(=O)[C@@H](N)Cc1ccc(O)cc1)[C@@H](C)O)[C@@H](C)CC)C(=O)N[C@@H](CC(C)C)C(=O)N[C@@H](CC(C)C)C(=O)N[C@@H](CC(=O)O)C(=O)N[C@@H](CCCCN)C(=O)N[C@@H](CCCCNC(=O)COCCOCCNC(=O)COCCOCCNC(=O)CC[C@H](NC(=O)CCCCCCCCCCCCCCCCC(=O)O)C(=O)O)C(=O)N[C@@H](Cc1c[nH]cn1)C(=O)N[C@@H](CCC(N)=O)C(=O)NC(C)(C)C(=O)N[C@@H](CC(=O)O)C(=O)N[C@@H](Cc1ccccc1)C(=O)N[C@H](C(=O)N[C@@H](CCC(=O)O)C(=O)N[C@@H](Cc1ccncc1)C(=O)N[C@@H](CC(C)C)C(=O)N[C@@H](CC(C)C)C(=O)N[C@@H](C)C(=O)NCC(=O)NCC(=O)N1CCC[C@H]1C(=O)N[C@@H](CO)C(=O)N[C@@H](CO)C(=O)NCC(=O)N[C@@H](C)C(=O)N1CCC[C@H]1C(=O)N1CCC[C@H]1C(=O)N1CCC[C@H]1C(=O)N[C@@H](CO)C(N)=O)C(C)C` [Example 22], for which the Ki was greater than 1380 nM at human GcgR, 0.219 nM on human GIPR and 388 nM at human GLP-1R.

The values are drawn from patent US12723063B2, “GIPR-agonist compounds” (Eli Lilly and Company, priority 2019, dated 2026).
